Assay: oral 10 mg cetirizine pill during allergic reaction
Assay type: in vivo, human
Conditions: person, 10 mg pill around noon
Protocol: The irritants in degraded fall leaves and yard debris caused an overwhelming allergic reaction. They took a pill of 10 mg cetirizine around 12 o'clock noon time. […] They suffered a severe running nose and sneezes. They used the anti-sneeze sticks and cotton swabs described in previous examples frequently.

O=C(O)COCCN1CCN(C(c2ccccc2)c2ccc(Cl)cc2)CC1 (stereo not shown) [cetirizine]
effect of oral drug on allergic reaction, running nose and sneezes: did not take effect as expected

— patent US20150342906A1, “Anti-sneeze and nose vestibule care - compositions, methods, and devices” (priority 2014, published 2015)
